Source: US5621102A, “Process for preparing enantiomerically pure xanthine derivatives” (Cell Therapeutics, Inc., priority 1995, dated 1997)

Columns and labels:
[1] = test system: PBMC (peripheral blood mononuclear cells); assay: two-way mixed lymphocyte reaction (MLR); type: cell-based, human
Excerpt: Various in vitro assays can be used to measure effects of the inventive compounds to module immune activity and have antitumor activity using a variety of cellular types. For example, a mixed lymphocyte reaction (MLR) provides a valuable screening tool to determine biological activity of each inventive compound. In the MLR, PBMCs (peripheral blood mononuclear cells) are obtained by drawing whole blood from healthy volunteers in a heparinized container and diluted with an equal volume of hanks balanced salt solution (HBSS). This mixture is layered on a sucrose density gradient, such as a Ficoll-Hypaque® gradient (specific gravity 1.08), and centrifuged at 1000×g for 25 minutes at room temperature or cooler. PBMC are obtained from a band at a plasma-Ficoll interface, separated and washed at least twice in a saline solution, such as HBSS. Contaminating red cells are lysed, such as by ACK lysis for 10 min at 37° C., and the PBMCs are washed twice in HBSS. The pellet of purified PBMCs is resuspended in complete medium, such as RPMI 1640 plus 20% human inactivated serum. Proliferative response of PBMC to allogeneic stimulation is determined in a two-way MLR performed in a 96-well microliter plate. […] At the conclusion of the incubation tritiated thymidine is added (for example, 1 μCi/well of 40 to 60 Ci/mmole) and proliferation determined by liquid scintillation counting. […]

smooth muscle cells = assay: smooth muscle proliferation stimulated by PDGF and IL-1; type: cell-based; settings: drug added two hours prior to activation
Excerpt: CT1501R and PTX were separately added to the cells two hours prior to activation with PDGF and IL-1.

[2] = test system: hair follicles of nu/nu mice; assay: nude mouse hair studies, topical application; type: in vivo; settings: second experiment; 60% ETOH, 10% water, 30% PEG base, twice daily, 34 days
Excerpt: This example illustrates nude mouse hair studies involving topical application of CT1501R. Six to eight week old, female, nu/nu mice from Charles River Laboratories were housed at Biosupport Research Support Services (Seattle, Wash.) in autoclaved micro isolator units with hyperchlorinated autoclaved water, irradiated rodent chow and kept under a laminar flow hood. Caging was changed weekly, and water was changed twice weekly. The mice were acclimated for 5 days before beginning each study.
The first topical formulation was prepared by adding CT1501R to a heated hydrophilic ointment (USP) at a 1% concentration, and allowed to solidify.
Nude mice were painted twice daily for 16 days with the first topical formulation of CT1501R on the left flank and another compound in the same base on the right flank with sterile applicators. Mice were handled under the laminar flow hood with applicator wearing face mask and sterile gloves. After 16 days, one mouse was sacrificed by cervical dislocation and skin biopsies were taken of the treated areas of the shoulder/flank and from the non-treated area of the dorsal pelvis (rump). Specimens were placed in 10% buffered formalin solution. Biopsies were sent to a veterinary dermopathologist for histopathology. Six weeks following treatment, a second mouse was euthanatized and biopsied the same as the first. Samples were sent for histopathology.
In a second experiment, topical application of CT1501R was performed along with a commercial topical minoxidil preparation (Rogaine®, Upjohn) that is approved for a hair growth indication. Five to six week old, female, nu/nu mice from Bantin and Kingman Universal were housed at Biosupport Research Support Services (Seattle, Wash.) in autoclaved micro isolator units with hyper chlorinated autoclaved water, irradiated rodent chow and kept under a laminar flow hood. Caging was changed weekly, and water was changed twice weekly. Mice were acclimated for 7 days before beginning study, […]

SMILES	proliferative response of PBMC to allogeneic stimulation [1]	inhibition of smooth muscle cell proliferation (smooth muscle cells)	hair follicles, subjective histopathological examination [2]
CC(=O)CCCCn1c(=O)c2c(ncn2C)n(C)c1=O [PTX, 1-(5-oxohexyl)-3,7-dimethylxanthine, reference compound]	showed dose-response activity	inhibited smooth muscle cell proliferation at the higher doses tested	
Nc1cc(N2CCCCC2)nc(N)[n+]1[O-] [minoxidil, reference compound]			fair response to treatment
